Results taken from patent publication US12351574B2, “Selective ligands for modulation of GIRK channels” (Northeastern University, priority 2018, dated 2025).

Target: T1, GIRK1-S65A with GIRK2 (UniProt P48542+P48549, S65A)
T1 construct: expressed in transfected cells; host or cells: HEK293 cells
T1 sequence (P48549 1-501 S65A): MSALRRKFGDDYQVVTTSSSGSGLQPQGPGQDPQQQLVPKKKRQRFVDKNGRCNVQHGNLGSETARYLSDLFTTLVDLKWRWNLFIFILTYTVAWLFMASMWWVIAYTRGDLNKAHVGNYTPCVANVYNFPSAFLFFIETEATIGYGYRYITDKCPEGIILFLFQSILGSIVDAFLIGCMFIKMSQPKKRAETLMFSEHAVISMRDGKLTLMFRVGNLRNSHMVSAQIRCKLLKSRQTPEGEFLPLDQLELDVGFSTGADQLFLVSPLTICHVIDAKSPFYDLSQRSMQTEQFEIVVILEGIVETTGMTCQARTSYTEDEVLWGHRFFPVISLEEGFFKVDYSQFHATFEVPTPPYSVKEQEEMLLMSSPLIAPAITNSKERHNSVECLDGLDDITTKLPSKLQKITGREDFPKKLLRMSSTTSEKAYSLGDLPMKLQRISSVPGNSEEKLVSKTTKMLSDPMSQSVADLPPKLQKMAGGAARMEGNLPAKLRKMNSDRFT
T1 sequence (P48542 1-425): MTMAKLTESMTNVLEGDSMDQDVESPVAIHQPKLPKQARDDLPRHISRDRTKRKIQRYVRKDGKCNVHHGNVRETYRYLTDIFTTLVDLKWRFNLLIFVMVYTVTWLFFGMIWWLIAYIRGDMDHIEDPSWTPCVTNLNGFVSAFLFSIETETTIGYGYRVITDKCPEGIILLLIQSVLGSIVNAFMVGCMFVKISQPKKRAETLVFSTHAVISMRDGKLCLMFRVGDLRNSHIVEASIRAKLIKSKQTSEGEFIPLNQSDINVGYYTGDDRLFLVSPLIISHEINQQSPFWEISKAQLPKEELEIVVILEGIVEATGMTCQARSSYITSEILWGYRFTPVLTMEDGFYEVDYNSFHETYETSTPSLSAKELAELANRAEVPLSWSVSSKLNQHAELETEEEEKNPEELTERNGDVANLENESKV
Assay: 5-ptaseOCRL current inhibition, GIRK1/2 channels containing GIRK1-S65A subunits
Assay type: cell-based, human GIRK1, mouse GIRK2
Conditions: 10 μM GAT1508
Description: To identify changes in specific channel residue interactions with PIP2 upon ligand binding, the inventors carried out Principal Component Analysis (PCA) in the presence and absence of ML297 and GAT1508. The PCA analysis implicated changes in the slide (or interfacial) helix interactions with PIP2 upon ligand binding. Polar interactions could be formed between GIRK2^FD(Y76) and GIRK4^FD(Y71) with the P(4,5) of PIP2 when ML297 was bound to the same subunit (FIG. 39 top, FIG. 40). In contrast, when GAT1508 was bound this interaction was retained by GIRK2^FD but not GIRK4^FD (FIG. 39 bottom, FIG. 40). The corresponding GIRK1(S65) residue (FIG. 41, highlighted with vertical rectangle) could be serving the same role in stabilizing the phosphoinositol headgroup for interactions with non-ligand binding subunits. As polar residues, both Ser and Tyr could form H-bond interactions with PIP2. […]
Patch-clamp recording: Whole-cell currents were recorded with an Axopatch 200B amplifier (Molecular Devices) controlled via a USB-interface (National Instruments) using WinWCP software (University of Strathclyde). […] The barium-sensitive component of the current, observed when cells were perfused with the high-K^+ buffer, was analyzed and was determined by perfusing 5 mM BaCl2 in the high-K^+ buffer at the end of each experiment. […]

## Cc1cc(NC(=O)Nc2ccc(Br)s2)n(-c2ccccc2)n1 [GAT1508, 1-(5-bromothiophen-2-yl)-3-(3-methyl-1-phenyl-1H-pyrazol-5-yl)urea]
  protection of current from 5-ptaseOCRL (in words): not protected
